Results as given in PMC12648443, “Modifications of NU-9, a potent protein aggregation inhibitor. Properties and activity in a cellular model of amyotrophic lateral sclerosis” (Bioorganic chemistry, 2025).

Columns and labels:
[1] = test system: MG132-induced mutant SOD1 intracellular aggregation in PC12-SOD1^G85R YFP cells; experiment: Protection against MG132-induced mut-SOD1 intracellular aggregation (fluorescence microscopy); format: cell-based; conditions: PC12-SOD1^G85R YFP cells, 0.7 μM MG132, 72 h; Inactive = no decrease of aggregates at 10 μM vs vehicle
Method: The PC12 Tet-Off-SOD1^G85R YFP cells were cultured in DMEM media supplemented with 10 % horse serum, 5 % Tet-approved FBS, 1 % Penstrep, 1× L-glutamine, 200 μg/mL hygromycin, 100 μg/mL G418, with 1 μg/mL Doxycycline and were incubated at 37 °C in humidified air with […] until 90–95 % confluency. To induce the expression of SOD1^G85R YFP, the Doxycycline was removed at least 4 days before the experiment. To remove the Doxycycline, the media was removed, and the cells were washed 3 times with 1xPBS. The cells were then cultured in standard culture media without Doxycycline. To set up the assay, the cells were then seeded into 96-well cell culture plates (Greiner Bio-One Catalog #655090) at a concentration of 50,000 cells/well with a final volume of 100 μL/well and incubated in the CO2 incubator at 37 °C for 24 h. The media were removed from the cells and replaced with 100 μL of media containing 0.1 % DMSO or compounds, and incubated in the CO2 incubator at 37 °C for 6 h. The media were then replaced with fresh 100 μL of media containing the diluted compounds with 0.7 μM (−)-MG-132, and the plates were incubated for 72 h under culture conditions. After 72 h, the cells were stained with Hoescht 33,342 (55 μg/mL, 10 μL/well) and imaged (lex = 358, 513 nm) using a Molecular Devices ImageXpress Micro Confocal High-Content Imaging System equipped with a 40× objective. […] Image binning was set to 2. DAPI fluorescence was captured using an exposure time of 300 ms, and FITC fluorescence was captured using an exposure time of 400 ms. A 13-plane z-series was acquired for each field of view with a step size of 3 μm. For each condition, 2 sets of 9 images were generated in a 3 × 3 grid to separately image the SOD1^G85R YFP proteins and the nuclei stained with Hoescht 33,342. Image analysis was performed with MetaXpress software (Molecular Devices) using the Transfluor module. Parameters for puncta detection (aggregates) were set with a minimum pit width of 2 μm and a maximum pit width of 5 μm. Signal intensity thresholds were defined as 700 grayscale units above the local background. The analysis provided the average area of each cell that is covered by puncta (pit/cell), which are indicated by bright green spots on the SOD1^G85RYFP image set.
The assay was performed in triplicate for each condition tested, and wells containing the media with vehicle (0.1 % DMSO) or (−)-MG-132 alone were used as controls representing the minimum and maximum aggregate formation. […] The data for EC50 determination was treated with Prism and fitted using a semi-logarithmic curve for determination of the EC50 values of NU9 and compounds 4, 6, 20 and 21.

[2] = Microsomal metabolic stability, human; format: in vitro ADME; conditions: liver microsomes; for microsomal CLint at 1.1 μM: pH 7.4, 0.5 mg/mL; for half-life at 1.1 μM: pH 7.4, read-out: t1/2 (human)
Method: (§1) The assay was performed at Jubilant Biosys. Vials containing human or mouse microsomes were collected from the -80 °C freezer and thawed on ice. Then 27.5 μL of the initial microsome solutions (20 mg/mL) were diluted in 971.5 μL of a 67 mM potassium phosphate buffer solution (pH 7.4). The testing compounds were diluted in the buffered microsomal solution to obtain a final concentration of 1.1 μM. Then four different aliquots, each containing 180 μL of the assay solution, representing the samples at T = 0, T = 5, T = 15, and T = 30 min. The samples were pre-incubated at 37 °C for 5 min with gentle shaking, and then 20 μL of a NADPH solution (10 mM) was added to the different solutions of the test compounds. […] An aliquot of the supernatant (200 μL) was collected from each reaction sample and analyzed by LC-MS/MS. The Ln values of the peak area of the compounds to the internal standard over time (min.) were graphed using Excel, and the elimination rates of the compounds (k) were determined from the slopes obtained from the graphs. The k values were used to calculate the compounds half-life using the equation: t1/2=Ln2/k The intrinsic clearance (CLint) of each compound in the presence of mouse and human microsomes was calculated using the equation: […] Verapamil and Ketoconazole were used as controls to evaluate the assay performance. The results are presented as an average of two technical replicates.

[3] = Microsomal metabolic stability, mouse; format: in vitro ADME; conditions: liver microsomes; for microsomal CLint at 1.1 μM: pH 7.4, 0.5 mg/mL; for half-life at 1.1 μM: pH 7.4, read-out: t1/2 (mouse)
Method: as §1

HT22 hippocampal cells = experiment: DAPRed autophagy dye live cell imaging; format: cell-based, mouse; conditions: 3 μM, 5 h treatment, bafilomycin 0.1 μM in the last 3 h
Method: HT22 immortalized mouse hippocampal neuronal cell line was maintained in DMEM supplemented with 10% FBS and 1% penicillin-streptomycin under standard conditions (37 °C, 5% CO2). On the day before the experiment, HT22 cells were transferred to a sterile poly-D-lysine-coated Nunc™ Lab-Tek™ II Chambered Coverglass (8 wells; Thermo Fisher Sci. cat. 155,409) at a concentration of 40,000 cells/300 μL of media in each well and incubated overnight at 37 °C. Stock solutions of Torin-1 (10 mM) and 20 (10 mM) were prepared in DMSO and then diluted in media to obtain the final treatment solutions at 0.2 and 3 μM, respectively. The media was removed, the cells were quickly washed with 1×PBS solution, and fresh media containing the compounds or the DMSO (0.1 % v/v) were transferred to the wells. The plates were incubated for 2 h. The media was removed, and after washing once with 1×PBS, fresh media containing Bafilomycin (0.1 μM), DAPRed dye (0.25 μM) and Hoescht 33,342 (55 μg/mL) was added to the wells and the cells were incubated for 3 h at 37 °C. […] Puncta structures >0.2 μm were then identified using Otsu thresholding and the results represented as particles per cell for each set of images analyzed. […] The statistical differences between two or more groups were determined by One-way ANOVA followed by Sidak post-hoc multiple-comparison test. […]

Compound	EC50 [1]	microsomal CLint at 1.1 μM [2]	half-life at 1.1 μM [2]	microsomal CLint at 1.1 μM [3]	half-life at 1.1 μM [3]	DAPRed fluorescence signal (autophagy flux) compared to vehicle (HT22 hippocampal cells)
O=C1CC(=O)CC(/C=C/c2cc(C(F)(F)F)cc(C(F)(F)F)c2)C1 [Compound 6, (E)-5-(3,5-Bis(trifluoromethyl)styryl)cyclohexane-1,3-dione]	2060 ± 240 nM	25.8 ± 1.6 µL/min/mg	53.9 ± 3.3 min	67.3 ± 0.9 µL/min/mg	20.7 ± 0.3 min	
CC(C)(Oc1cc(C(F)(F)F)cc(C(F)(F)F)c1)C1CC(=O)CC(=O)C1 [Compound 20, 5-(2-(3,5-bis(trifluoromethyl)phenoxy)propan-2-yl)cyclohexane-1,3-dione]	2630 ± 270 nM	10.4 ± 3.1 µL/min/mg	> 120 min	35.7 ± 4.7 µL/min/mg	40.7 ± 3.8 min	increasing DAPRed fluorescence signal
